What was measured:
[1] = system: bleomycin-induced pulmonary fibrosis mouse model; assay: Anti-fibrosis effect in bleomycin-induced pulmonary fibrosis mouse model (micro-CT, weight, lung wet weight); type: in vivo
Description: (§1) C57BL/6J mice (20±2 g, female) were purchased from Beijing Life River Experimental Animal Technology Co., Ltd, and were housed in specific pathogen-free animal facilities. For the induction of fibrosis, mice were treated with 100 μL of bleomycin (with concentration of 1 mg/mL) at a dose of 5 mg/Kg via tracheal intubation.
(§2) After two weeks of bleomycin administration, mice were divided into four groups. In the RLX@PMs group, porous microspheres loaded with RLX were administered at a single dose of 70 μg/mouse (including RLX) to each mouse via nebulization. Similarly, in the RLX-free group, the RLX-free solution was administered via nebulization at a dose of 5 μg/mouse daily for two weeks. In addition, a blank control group only nebulized with PBS (PBS group) was also set up. Pirfenidone was used as a positive control, and was administered via intragastric gavage to mice at a dose of 300 mg/kg daily for two weeks (PFD group). The weight of mice was recorded once every two days.
For further examination, after anesthesia, whole-lung imaging was performed using a micro-computed tomography (micro-CT) imaging system for small animals (scanning parameters: scan resolution, 18 μm; voltage, 70 kV; current, 100 μA). After treatment, all mice were euthanized and tissues were collected for further analysis, and lung coefficient was calculated by the wet weight of lungs.

[2] = system: bleomycin-induced pulmonary fibrosis mouse model; assay: Lung histopathology: H&E, Masson trichrome and Sirius red staining; type: in vivo, C57BL/6J mice
Description: as §1, §2
In addition to in vivo imaging examination, we also used hematoxylin and eosin (H&E) staining, Masson's trichrome staining and Sirius red staining to detect the histological changes and collagen deposition in the lungs according to the manufacturer's instructions. After the mice were euthanized, the whole lung tissues were collected and fixed in 4% paraformaldehyde overnight. Subsequently, the tissues were subjected to gradient dehydration according to the standard procedure and embedded with paraffin. The lung tissues of mice were embedded in paraffin and cut into 3 μm sections, followed by H&E staining. […] The stained sections were imaged using a VS120 virtual slide microscope, and the severity of interstitial fibrosis was evaluated at 100× magnification by measuring the percentage of blue stained area. […] After staining, the stained sections were scanned by a polarization microscope, and the degree of collagen deposition in the lung was evaluated based on the image. All collagen density data were quantified by ImageJ software.

[3] = mice

Row | site of deposition (lung versus gastrointestinal tract), fluorescence signals ([3]; nebulized inhalation, in vivo imaging) | time until fluorescence signals disappeared completely ([3]; single inhalation) | SMILES | lung structure / fibrosis by micro-CT ([1]; after 4 weeks of treatment) | mortality ([1]; bleomycin mice, PFD 300 mg/kg daily, intragastric) | weight change of mice ([1]; weight recorded every two days) | collagen accumulation / deposition (Masson trichrome staining) ([2]; fibrosis around bronchi, versus PBS group) | airway remodeling, angiogenesis and parenchymal inflammation (lung histopathology) ([2]; increased by bleomycin exposure) | therapeutic effect on collagen deposition (Sirius red staining) ([2]; polarization microscope)
1 |  |  | Cc1ccc(=O)n(-c2ccccc2)c1 [Pirfenidone] | a certain degree of fibrosis | died within three weeks | progressive weight loss | lower than that of the PBS group | attenuated these effects | slight therapeutic effect
2 | higher | ≤ 2 weeks | CCN(CC)c1ccc2c(-c3ccccc3C(=O)O)c3ccc(=[N+](CC)CC)cc-3oc2c1 [rhodamine B-free, rhodamine B] |  |  |  |  |  | 

— US20250235507A1, “INHALABLE POROUS MICROSPHERE LOADED WITH RECOMBINANT HUMAN RELAXIN-2 AND PREPARATION METHOD THEREFOR” (SHANDONG UNIVERSITY, priority 2023, published 2025)
